Laboratory results: US11542481B2, “Morphinan N-demethylase isolated from the methylobacterium thebainfresser and methods of use thereof” (priority 2017, dated 2023)
Read-outs that look alike come from different tables or passages of the source.

B1: Methylobacterium Thebainfresser morphinan N-demethylase (MND), SEQ ID NO: 2, His-tag purified from E. coli PLUSE cells (Methylobacterium thebainfresser) (protein)
chain: MTEKTPKLGSEAANKLGLEADISRRDMVGGVLIGAGAALLASVAPGAINRALAEGPSRLPPVRGSGTGWRGIEIADDWQGPGGIGDYSKSNGNTGKVIRDAHAGIRNHEFEKRLATASDVNEKYDVIIVGAGISGLHSAYDLLRQRPNIKILMLDNHAIFGGEAKQNKMEVDGQALYGGQGPTLYSFVGDDLPSWKGNPALASIMELKTYPKEFGLPTETTWSDKKTDVKVPVDLWFSMASPSQTDIAYRWEGSGLVKNPLLNSFRDAPVSQKSKDAIALMLAVDNGAKRPVEPVGDVSTWVDNMTYAEFLKKVYGADDEAVQLVDQIDVVGTAGLGGDVFNASLAALGLNQYGGIELWNGGLQGLSLPTGNGGVGRSILRKFMPGAIKGGTSLTDTLFGDVNWDVLDHANNNVRIRLNSTVVGVQNNETPTGTKDATVFFLHDNRLYKAKGKAVIMGTPQQVNRNVCLNLPNHLSEAMGDFHHAPILVVNVALRNWKSMEKAGVSGLRWFGEYPGIGQIVRSMVIDGKEIMPCDPSKPAVMTFYIPMNQATRGMPRGEQAMTARHMLFNLTFADIELLIRDQLTRAFGSYGFDAKRDIAAIVANRWGHALVCAGPGFYTGLNGKPPVSKVITAGWDRVAFGHSDLSGRQAWTVAVNYARTAVANVFPKI

Columns and labels:
MND enzyme [1] = format: biochemical, Methylobacterium Thebainfresser; conditions: for substrate acceptance / detectable N-demethylase activity (in words): overnight assays, purified MND enzyme from PLUSE cells
Method: Samples were injected by the UFLCXR (Shimadzu) autosampler/pump system using a 0.5 ml/min flow rate prior to separation using a Gemini C-18 column (150×2.00 mm, 5μ, 110 Å; Phenomenex) and introduction into the QTRAP 6500. The program consisted of a binary gradient with solvent A (5% acetonitrile/5% MeOH/10 mM ammonium acetate/15 mM NH4OH) and solvent B (90% acetonitrile/10 mM ammonium acetate/15 mM NH4OH) and the following gradient: 0-2.0 min 0% B, 2.0-9.0 min 0-44% B, 9.0-11.0 min 44-100% solvent B, 11-13 min 100% B and 100-0% solvent B from 13-14 min and held at 0% B for an additional 8 min. EPI scans for each substrate and predicted product mass were included for each enzyme assay and source parameters were identical to those used for the QTRAP 4000 above except CE and DP which were based upon the optimum for each individual compound. Masses used can be found in table 3. Data were analyzed using Analyst 1.6.2.
Substrates were prepared in a 1 mM stock concentration then diluted to 100 μM working concentration for use in enzyme assays with the MND enzyme. […] No more than 15% ethanol was added to the 1 mM concentrations. […] All enzyme assays contained 30 mM potassium phosphate buffer pH 8.0, 7.5 μM substrate and 100 μl of purified MND enzyme (˜36 μg) in a total volume of 200 μl. Duplicate assays of each substrate using purified pET28a empty vector were performed as negative control and an assay containing thebaine and MND enzyme was used as a positive control. Assays were incubated at 30° C. overnight prior to ethyl acetate extraction. All samples were diluted 10 fold with 50% MeOH and analyzed on the QTRAP 6500 using method 2 and a 20 μl injection volume. The percentage of substrate demethylation was calculated based upon reduction of substrate in the enzyme assay as compared to the negative control.
Purified MND enzyme from PLUSE cells was used to test various substrates containing a methylated nitrogen (FIG. 16) in overnight assays.

[2] = Proteinase K treatment and cofactor addition, conversion of thebaine to northebaine; format: biochemical; conditions: 1500 pmol cofactor added to no enzyme and pET28a empty vector controls
Method: The first of two assays performed included adding 1500 pmol FAD to the 200 MND enzyme assay including 100 μl purified MND (˜36 μg) and 1500 pmol thebaine in 30 mM potassium phosphate buffer pH 7.0 with and without a prior 1 hour digest (of MND enzyme) with Proteinase K. Controls included a no enzyme control, FAD addition to a no enzyme control, a pET28a empty vector control, a pET28a empty vector control with FAD, and a pET28a empty vector control digested with Proteinase K followed by FAD addition. Assays were allowed to incubate for 20 minutes and then processed as in section 23.0. A second set of assays was performed, in duplicate, to validate the results found in the previous assay in addition to testing more cofactors. This assay included the following conditions; MND enzyme, MND enzyme pre-digested with Proteinase K for 1 hour, MND enzyme digested with Proteinase K in the presence of 1% SDS and 10 mM EDTA, MND enzyme with 1% SDS and 10 mM EDTA (no Proteinase K pre-digestion), pET28a empty vector, pET28a empty vector pre-digested with Proteinase K for 1 hour, pET28a empty vector digested with Proteinase K in the presence of 1% SDS and 10 mM EDTA, MND enzyme with the addition of 1500 pmol FMN, pET28a empty vector with the addition of 1500 pmol FMN, MND enzyme with the addition of 1500 pmol PLP and pET28a empty vector with the addition of 1500 pmol PLP. Assays were allowed to proceed for 20 minutes prior to processing and quantitation as described in section 23.0.

MND enzyme [3] = assay: Purified MND enzyme assay using thebaine as substrate; format: biochemical, Methylobacterium Thebainfresser
Method: […]. No enzyme, boiled enzyme, and purified empty vector controls were included. MND enzyme was heated for 10 min at 95° C. for the boiled enzyme control. Assays were extracted twice with 400 μl ethyl acetate and dried to completion with N2. Dried samples were resuspended in 150 μl of 50% MeOH, filtered (low protein binding 0.2 μm, 4 mm, PTFE; Millipore), and diluted 100 fold prior to LC-MS/MS analysis on the QTRAP 6500 using method 1 and a 5 μl injection volume.
Enzyme assays using the purified MND enzyme protein produced in PLUSE cells were done, in duplicate, as indicated above with the following exceptions: 10 μl of 100 μM codeine standard was added to each assay, prior to extraction, as an internal standard. Dried extracts were resuspended in 200 μl of 50% MeOH, filtered (0.2 μm, 4 mm, PTFE, Millipore). Samples were diluted 50 fold prior to a 5 μl injection onto the QTRAP 6500 using method 1.

[4] = substrate: COC1=CC=C2[C@H]3Cc4ccc(OC)c5c4[C@@]2(CCN3C)[C@H]1O5; assay: purified protein, by the assay type; conditions: pH 7.0; 30.0 °C
[5] = overnight enzyme assay at 30° C., 7.5 μM substrate, ~36 μg purified MND enzyme, pH 8.0, reduction of substrate vs empty vector control, percentages approximate

| Molecule | Percent demethylated (MND enzyme [1]; [5]) | other results |
| --- | --- | --- |
| CN1[C@@H]2CC[C@H]1CC(=O)C2 [Tropinone] | 40% | substrate acceptance / detectable N-demethylase activity (in words) (MND enzyme [1]): accepted |
| CN1CC[C@]23c4c5ccc(O)c4O[C@H]2[C@@H](O)C=C[C@H]3[C@H]1C5 [Morphine] |  | Percent demethylated (MND enzyme [1]; pH 8): 100% |
| COc1cc2c(cc1O)[C@H](CCc1cc(O)c(OC)c(OC)c1)N(C)CC2 [Autumnaline] | 11% |  |
| CN(C)Cc1c[nH]c2ccccc12 [Gramine] | 51% | substrate acceptance / detectable N-demethylase activity (in words) (MND enzyme [1]): accepted |
| COc1ccc(C[C@H]2c3cc(O)c(OC)cc3CCN2C)cc1O [(S)-Reticuline] | 55% |  |
| Cc1ncc(COP(=O)(O)O)c(C=O)c1O [PLP] |  | background demethylation of thebaine to northebaine on cofactor addition [2]: did not |
| COc1ccc2c3c1O[C@H]1[C@@H](O)C=C[C@H]4[C@@H](C2)N(C)CC[C@@]341 [Codeine] | 100% |  |
| COc1ccc(CC2c3cc(OC)c(OC)cc3CCN2C)cc1OC (centres unmarked) [Laudanosine] | 31% |  |
| CC(=O)Oc1ccc2c3c1O[C@H]1[C@@H](OC(C)=O)C=C[C@H]4[C@@H](C2)N(C)CC[C@@]341 [Heroin] | 70% |  |
| COc1ccc(CC2c3cc(OC)c(O)cc3CCN2C)cc1O (centres unmarked) [Protosinomenine] | 60% |  |
| COc1ccc(C[C@@H]2c3cc(O)c(OC)cc3CCN2C)cc1O [(R)-Reticuline] | 25% |  |
| Cc1cc2nc3c(=O)[nH]c(=O)nc-3n(C[C@H](O)[C@H](O)[C@H](O)COP(=O)(O)O)c2cc1C [FMN, flavin mononucleotide] |  | background demethylation of thebaine to northebaine on cofactor addition [2]: increase in background activity |
| CN1[C@@H]2CC[C@H]1C[C@@H](OC(=O)[C@H](CO)c1ccccc1)C2 [Hyoscyamine] | 18% | substrate acceptance / detectable N-demethylase activity (in words) (MND enzyme [1]): accepted |
| COC1=CC=C2[C@H]3Cc4ccc(O)c5c4[C@@]2(CCN3C)[C@H]1O5 [Oripavine] | 100% |  |
| COC1=C[C@]23CCN(C)[C@H](Cc4ccc(OC)c(O)c42)C3=CC1=O [Salutaridine] | 100% |  |
| COc1cc(C[C@@H]2c3cc(O)c(OC)cc3CCN2C)ccc1O [Orientaline] | 100% |  |
| COC1=C[C@]23CCN(C)[C@H](Cc4ccc(OC)c(O)c42)C3=C[C@@H]1O [Salutaridinol] | 100% |  |
| CN1CC[C@]23c4c5ccc(O)c4O[C@H]2C(=O)CC[C@@]3(O)[C@H]1C5 [Oxymorphone] | 73% |  |
| CN1CC[C@]23c4c5ccc(O)c4O[C@H]2C(=O)C=C[C@H]3[C@H]1C5 [Morphinone] | 100% |  |
| COc1cc2c3c(c1O)-c1c(cccc1OC)C[C@@H]3N(C)CC2 [Isothebaine] | 35% | substrate acceptance / detectable N-demethylase activity (in words) (MND enzyme [1]): accepted |
| Cc1cc2nc3c(=O)[nH]c(=O)nc-3n(C[C@H](O)[C@H](O)[C@H](O)COP(=O)(O)OP(=O)(O)OC[C@H]3O[C@@H](n4cnc5c(N)ncnc54)[C@H](O)[C@@H]3O)c2cc1C [FAD, flavin adenine dinucleotide] |  | background demethylation of thebaine to northebaine on cofactor addition [2]: slight increase |
| COc1ccc2c(c1OC)C(=O)O[C@@H]2[C@H]1c2c(cc3c(c2OC)OCO3)CCN1C [Noscapine (Narcotine)] | 20% |  |
| Isoorientaline | 86% |  |
| COC1=CC=C2[C@H]3Cc4ccc(OC)c5c4[C@@]2(CCN3C)[C@H]1O5 [Thebaine] | 100% | conversion to N-demethylthebaine (northebaine) (MND enzyme [3]; aqueous solution at 30° C.): 100%; substrate depletion (in words) (MND enzyme [3]; overnight assay, purified MND enzyme, 1500 pmol thebaine, pH 8.0, 30° C.): depleted completely |
| COc1ccc(C[C@H]2c3cc(OC)c(OC)cc3CCN2C)cc1O [Laudanine (Laudanidine)] | 14% |  |
| COc1ccc2c3c1O[C@H]1C(=O)C=C[C@H]4[C@@H](C2)N(C)CC[C@]314 [Codeinone] | 100% |  |
| CN1[C@@H]2C[C@@H](OC(=O)[C@H](CO)c3ccccc3)C[C@H]1[C@@H]1O[C@@H]12 [Scopolamine] | 65% | substrate acceptance / detectable N-demethylase activity (in words) (MND enzyme [1]): accepted |
| CN1[C@@H](CC(=O)c2ccccc2)CCC[C@H]1C[C@H](O)c1ccccc1 [(−)-Lobeline] | 20% | substrate acceptance / detectable N-demethylase activity (in words) (MND enzyme [1]): accepted |
| COc1ccc2c3c1O[C@H]1C[C@@H](O)C=C[C@@]31CCN(C)C2 [Galanthamine] | 27% | substrate acceptance / detectable N-demethylase activity (in words) (MND enzyme [1]): accepted |
| B1 |  | Km [4]: 0.97 µM; Vmax [4]: 0.32 pmol/s; kcat [4]: 0.00065 s⁻¹ |
